Laboratory results taken from patent US8168669B2, “Therapeutic agent for inflammatory bowel disease and TNF-α production inhibitor” (Ajinomoto Co., Inc., priority 2005, dated 2012).

Columns and labels:
Type in all cases: in vivo, mouse
[1] = tested on: colitis in Scid mice injected with cells of IL-10 deficient Balb/c mice; assay: Therapeutic effect on inflammatory bowel disease: colon weight in cell-transfer colitis mice fed experimental diet; parameters: Colon weight Mean: unit not given here; conditions: three weeks after cell transfer
Method: Balb/c background IL-10 deficient mice were established from C57BL/6 background IL-10 deficient mice by back-crossing for seventh generations. […] Spleen, mesenteric lymph nodes and sacral lymph nodes were collected from the IL-10 gene-deficient Balb/c mice (male) which had developed the colitis detected by observing the diarrhea symptoms. After preparing single cell suspensions, the cells at about 1×10^7 were injected intraperitoneally to Scid mice which were immunodeficiency mice (hereinafter the Scid mouse injected IP was referred to as an “experiment mouse”). Subsequently, a chow was changed to an experimental diet. At a time point three weeks after cell transfer, the mice were killed, the colon was collected, the intestinal contents were washed out, and its weight was measured. A percentage of inhibiting a weight gain of the colon was calculated by the following formula. Percentage of inhibiting a weight gain of colon=[1−(Colon weight in target group−Colon weight in cell transfer group)/(Colon weight in standard chow group−Colon weight in cell transfer group)]×100(%)
An amino acid mixture A is composed of the following amino acids (% by weight is represented in terms of free amino acid).

TNF-α mRNA = assay: Inhibitory effect on TNF-α production: quantitative RT-PCR of colon TNF-α mRNA; conditions: colon after three weeks
Method: (§1) The experimental diet obtained by mixing the amino acids shown in Table 6 with the standard chow was given to the experiment mice, and after three weeks, the colon was removed. A colon sample was homogenized with 500 μL of Isogen (Nippon Gene). The homogenate mixed with 100 μL, of chloroform was centrifuged at 15,000 rpm at 4° C. and an aqueous layer was collected. An equivalent amount of 2-propanol was added thereto, which was then centrifuged at 15,000 rpm at 4° C. A resulting pellet was washed with 70% (v/v) ethanol, dried in air and dissolved in water treated with DEPC.
All reagents used were from Invitrogen. 0.5 μg Of total RNA and 0.5 μg of oligo (dT) were dissolved in 12 μL of DEPC-treated water, heated at 70° C. for 10 minutes, and cooled on ice for one minute. Subsequently, 4 μL of 5×1st strand buffer, 1 μL of 10 mM dNTP mix and 2 μL of 100 mM DTT were added thereto. The mixture was reacted at 42° C. for 5 minutes. 1 μL (200 U) of SuperScriptII was added, and the mixture was reacted at 42° C. for 50 minutes and 70° C. for 15 minutes.
(§2) A gene expression assay based on PCR was performed using SYBR Green PCR Master Mix (Applied Biosystems) and ABI PRISM 7700 System. SYBR Green PCR Master Mix comprises SYBR Green and heat resistant DNA polymerase, and detects fluorescence generated by specifically binding SYBR Green to a double strand DNA amplified by PCR using ABI PRISM 7700 System. Gene expression amounts of the samples can be compared by comparing the numbers of PCR cycles at which a significant fluorescence signal is detected for the first time. The cDNA corresponding to 10 ng of total RNA was used as a template of the quantitative PCR, and n=2 or more per sample of measurements were performed. A forward primer and a reverse primer at each 7.5 pmol of each gene were added to 7.5 μL of SYBR Green PCR Master Mix (Applied Biosystems), and the total volume was made to be 15 μL with water. The PCR was performed by 40 cycles of the reaction at 95° C. for 10 seconds, 60° C. for 30 seconds and 72° C. for 30 seconds after reacting at 95° C. for 10 minutes. The sequences of the primers used for the quantitative RT-PCR are as follows.
An inhibitory rate of TNF-α mRNA expression was calculated from the following formula. Inhibitory rate of TNF-α mRNA expression=[1−Relative amount of TNF-α mRNA expression in target group−Relative amount of TNF-α mRNA expression in cell transfer group)/(Relative amount of TNF-α mRNA expression in standard chow group−Relative amount of TNF-α mRNA expression in cell transfer group)]×100(%)

Reg3γ mRNA = assay: Quantitative RT-PCR of colon Reg3γ mRNA; conditions: 5% in standard chow, colon after three weeks
Method: as §1
(§3) All reagents used were from Invitrogen. […]
as §2, with “A forward primer and a reverse primer at each 7.5 pmol of each gene were added to 7.5 μL of SYBR Green PCR Master Mix (Applied Biosystems), and the total volume was made to be 15 μL with water. The PCR was performed by 40 cycles of the reaction at 95° C. for 10 seconds, 60° C. for 30 seconds and 72° C. for 30 seconds after reacting at 95° C. for 10 minutes.” left out, “follows. […]” for “follows.”

Groα mRNA = assay: Quantitative RT-PCR of colon Groα mRNA; conditions: 5% in standard chow, colon after three weeks
Method: as §1, §3
as §2, with “A forward primer and a reverse primer at each 7.5 pmol of each gene were added to 7.5 μL of SYBR Green PCR Master Mix (Applied Biosystems), and the total volume was made to be 15 μL with water. The PCR was performed by 40 cycles of the reaction at 95° C. for 10 seconds, 60° C. for 30 seconds and 72° C. for 30 seconds after reacting at 95° C. for 10 minutes.” left out, “follows. […]” for “follows.”

[2] = Mus musculus, po, 504 h, 5% in standard chow, read-out: Rate of inhibiting weight gain of colon (%)

| SMILES | Colon weight Mean ([1]; 5% in standard chow) | inhibition in vivo at 5 % [1, 2] | Inhibitory rate of TNF-α mRNA expression (%) (TNF-α mRNA; 5% in standard chow) | also measured |
| --- | --- | --- | --- | --- |
| NC(=O)CC[C@H](N)C(=O)O [Example 1, glutamine] | 530.5 | 22.5% | – | – |
| NCCCC[C@H](N)C(=O)O [Example 2, lysine] | 392.8 | 48.5% | – | – |
| N[C@@H](Cc1c[nH]cn1)C(=O)O [Example 3, histidine] | 429.0 | 37.8% | 54% | Inhibitory rate of Reg3γ mRNA Expression (%) (Reg3γ mRNA): 84%; Inhibitory rate of Groα mRNA Expression (%) (Groα mRNA): 70% |
| N[C@@H](CS)C(=O)O [Example 4, cysteine] | – | 42.1% | – | – |
| NCC(=O)O [Example 5, glycine] | 437.1 | – | – | Rate of inhibiting weight gain of colon (%) ([1]; 5% in standard chow): 37.4% |
| N[C@@H](Cc1c[nH]c2ccccc12)C(=O)O [Example 6, tryptophan] | – | 92.7% | 49% | Colon weight Mean ([1]; 2% in standard chow): 425.6; inhibition in vivo at 2 % ([1]; Mus musculus, po, 504 h, 2% in standard chow, read-out: Rate of inhibiting weight gain of colon (%)): 41.9%; Inhibitory rate of TNF-α mRNA expression (%) (TNF-α mRNA; 2% in standard chow): 33% |
| CSCC[C@H](N)C(=O)O [Example 7, methionine] | 307.7 | 73.1% | – | – |
| N[C@@H](Cc1ccccc1)C(=O)O [Example 12, phenylalanine] | 392.8 | 48.5% | 84% | – |
| C[C@@H](O)[C@H](N)C(=O)O [Example 13, threonine] | 468.2 | 28.8% | – | – |
